Source: ChEMBL document CHEMBL1142584, “Insect antifeedants from Croton jatrophoides: structures of zumketol, zumsenin, and zumsenol” (2005)

How the values were obtained:
Type in all cases: functional
Spodoptera frugiperda [1] = assay: Antifeedant activity against Spodoptera frugiperda second-instar larvae assessed as 90 % protection after 48 hrs
Spodoptera frugiperda [2] = assay: Antifeedant activity against Spodoptera frugiperda second-instar larvae assessed as 50 % protection after 48 hrs
Pectinophora gossypiella [3] = assay: Antifeedant activity against Pectinophora gossypiella second-instar larvae assessed as 50 % protection after 48 hrs
Pectinophora gossypiella [4] = assay: Antifeedant activity against Pectinophora gossypiella second-instar larvae assessed as 90 % protection after 48 hrs

CC(=O)O[C@H]1[C@H](OC(C)=O)[C@]2(C)C(=CC[C@H]2c2ccoc2)[C@]2(C)C(=O)C[C@H]3C(C)(C)O[C@H]4C[C@H](O)C(=O)[C@]43[C@@H]12 [ZUMKETOL]
Activity (Spodoptera frugiperda [1]): 16 µg/mL
Activity (Spodoptera frugiperda [2]): 3 µg/mL
Activity (Pectinophora gossypiella [3]): 0.5 µg/mL
Activity (Pectinophora gossypiella [4]): 2 µg/mL
